Counter-ions that a name gives are not always drawn. Like-named read-outs stand apart in the source and are kept apart here. A value given as a limit tells only on which side of the number the result lay.

In one data set the target is T1, Recombinant human p38α (Homo sapiens, UniProt Q16539).
T1 construct: GST; made in house
Put plainly: Fluorescence anisotropy kinase binding assay (standard or low volume). The note with it: for active in the assay (pIC50, p38α binding): 12 nM p38α, 5 nM fluorescent ligand; for IC50: bound, read-out: apparent pIC50 (converted). In short, it runs like this:
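Activated GST-tagged recombinant human p38α (pre-activated with MBP-MKK6 DD) at 12 nM final with 5 nM rhodamine green-labelled pyridinylimidazole tracer in pH 7.5 HEPES/CHAPS/DTT/MgCl2 buffer. Test compound 0.28 nM–16.6 μM or 0.02 nM–25 μM final, 3% or 1.7% DMSO; 30–60 min at room temperature. Fluorescence anisotropy read (ex 485/em 535 nm) for Ki.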
(In general: Polarisation of emitted light reports the rotation of a fluorescent probe.)

Data set [1] has as its system influx of neutrophils to the lung in LPS-challenged rats. Put plainly: Rat LPS neutrophilia model. Type of data set: in vivo. The following applies: LPS aerosol, lavage 4 hours later, in at least one of the range of conditions tested, significance p<0.05. In short, it runs like this:
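Rats pretreated 15 min–24 h with compound or vehicle, given intratracheally (200 ul, isoflurane anaesthesia) as suspension in various vehicles, then exposed to LPS aerosol (100 ug/ml) 15 min. BAL 4 h later; Diffquick-stained differential counts give % inhibition of neutrophils versus no-compound controls at a set concentration and pretreatment time.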

For data set [2], the system named is IL-8 production by human neutrophils. Description: TNF-stimulated IL-8 production from human neutrophils. The following applies: Neutrophil, bound, not more than 50% inhibition at 100 nM, read-out: IC50. The class given is cell-based.
The subject of another data set is TNFalpha. Description: LPS-stimulated cytokine production in human whole blood. The class given is cell-based.
The mark [3] stands for this setting: LPS-stimulated TNF-alpha, bound, read-out: IC50.

T1 sequence (Q16539 whole entry): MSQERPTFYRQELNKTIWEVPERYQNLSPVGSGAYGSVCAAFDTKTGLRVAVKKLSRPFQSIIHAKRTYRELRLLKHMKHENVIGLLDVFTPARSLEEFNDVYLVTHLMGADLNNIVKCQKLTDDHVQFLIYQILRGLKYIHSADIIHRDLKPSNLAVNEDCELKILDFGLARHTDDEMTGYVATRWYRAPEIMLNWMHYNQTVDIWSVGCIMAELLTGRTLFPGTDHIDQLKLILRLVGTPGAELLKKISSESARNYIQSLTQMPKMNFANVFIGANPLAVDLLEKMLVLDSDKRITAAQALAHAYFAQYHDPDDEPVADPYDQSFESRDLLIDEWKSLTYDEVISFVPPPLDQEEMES
Description for TNFalpha: Assay: Test compound concentrations were prepared at 10× concentrations and LPS prepared at 1 ug/ml (final conc. of 50 ng/ml LPS) and added in 50 uL volumes to 1.5 mL eppendorf tubes. Heparinized human whole blood was obtained from healthy volunteers and was dispensed into eppendorf tubes or multiwell plates containing compounds and LPS in 0.2-0.4 mL volumes and the tubes incubated at 37 C. In some studies, compound was incubated with blood for up to 30 min prior to addition of LPS. Following a 4 hour incubation, the tubes or plates were centrifuged to remove cells and plasma was withdrawn and frozen at −80 C. Cytokine measurement: IL-1beta and/or TNFalpha were quantified using a standardized ELISA, or similar technology. Concentrations of IL-1beta or TNFalpha were determined from standard curves of the appropriate cytokine and IC50 values for test compound (concentration that inhibited 50% of LPS-stimulated cytokine production) were calculated by linear regression analysis.

For the compound `Cc1ccc(C(=O)Nc2ccc(C)c(-c3nc(NC4CC(C)(C)NC(C)(C)C4)nc4c3CNC(=O)N4c3c(F)cccc3F)c2)cc1F` [23(e), N-(3-{8-(2,6-difluorophenyl)-7-oxo-2-[(2,2,6,6-tetramethyl-4-piperidinyl)amino]-5,6,7,8-tetrahydropyrimido[4,5-d]pyrimidin-4-yl}-4-methylphenyl)-3-fluoro-4-methylbenzamide], the melting point was 220 °C (dec.). In addition, the “active in the assay (pIC50, p38α binding)” value (“active in the assay” below) on Recombinant human p38α is on record as “active”. The inhibition of neutrophilia result in data set [1] is “statistically nonsignificant inhibition of neutrophilia”.
For `Cc1ccc(C(=O)N(C)C)cc1-c1nc(N2CCN(C)CC2)nc2c1CNC(=O)N2c1c(F)cccc1F` [149(c), 3-[8-(2,6-difluorophenyl)-2-(4-methyl-1-piperazinyl)-7-oxo-5,6,7,8-tetrahydropyrimido[4,5-d]pyrimidin-4-yl]-N,N,4-trimethylbenzamide], the melting point lay within 159 to 162 °C. Also, at Recombinant human p38α, the “active in the assay” value was “active”. Further, the IC50 in data set [2] was above 100 nM.
Take `CCN(CC)C(=O)c1ccc(C)c(-c2nc(NCCN(C)C)nc3c2CNC(=O)N3c2c(F)cccc2F)c1` [156(c), 3-(8-(2,6-difluorophenyl)-2-{[2-(dimethylamino)ethyl]amino}-7-oxo-5,6,7,8-tetrahydropyrimido[4,5-d]pyrimidin-4-yl)-N,N-diethyl-4-methylbenzamide]: the melting point lay within 125 to 127 °C. At Recombinant human p38α, the “active in the assay” value is on record as “active”. For the same compound, the IC50 in data set [2] was above 100 nM.
`Cc1ccc(C(=O)Nc2ccc(C)c(-c3nc(N(C)C)nc4c3CNC(=O)N4c3c(F)cccc3F)c2)cc1F` [Example 28, N-{3-[8-(2,6-difluorophenyl)-2-(dimethylamino)-7-oxo-5,6,7,8-tetrahydropyrimido[4,5-d]pyrimidin-4-yl]-4-methylphenyl}-3-fluoro-4-methylbenzamide] came in with a melting point of 257.8 to 264.3 °C. For the same compound, the “active in the assay” value at Recombinant human p38α was “active”. In addition, the inhibition of neutrophilia entry in data set [1] is “statistically nonsignificant inhibition of neutrophilia”.
Regarding `Cc1ccc(C(=O)NC(C)C)cc1-c1nc(N2CCCCCC2)nc2c1CNC(=O)N2c1c(F)cccc1F` [Example 66, 3-[8-(2,6-difluorophenyl)-2-(hexahydro-1H-azepin-1-yl)-7-oxo-5,6,7,8-tetrahydropyrimido[4,5-d]pyrimidin-4-yl]-4-methyl-N-(1-methylethyl)benzamide], the IC50 in the data set on TNFalpha (setting [3]) is above 1000 nM.
Take `Cc1ccc(C(=O)NC(C)C)cc1-c1nc(N2CCCC2)nc2c1CNC(=O)N2c1c(F)cccc1F` [Example 67, 3-[8-(2,6-difluorophenyl)-7-oxo-2-(1-pyrrolidinyl)-5,6,7,8-tetrahydropyrimido[4,5-d]pyrimidin-4-yl]-4-methyl-N-(1-methylethyl)benzamide]: the IC50 in the data set on TNFalpha (setting [3]) was above 1000 nM.
On the same count and under the same terms, then `Cc1ccc(C(=O)NC(C)C)cc1-c1nc(N2CCOCC2)nc2c1CNC(=O)N2c1c(F)cccc1F` [Example 68, 3-[8-(2,6-difluorophenyl)-2-(4-morpholinyl)-7-oxo-5,6,7,8-tetrahydropyrimido[4,5-d]pyrimidin-4-yl]-4-methyl-N-(1-methylethyl)benzamide trifluoroacetate], with above 1000 nM; and `Cc1ccc(C(=O)NC(C)C)cc1-c1nc(N2CCC(n3c(=O)[nH]c4cc(Cl)ccc43)CC2)nc2c1CNC(=O)N2c1c(F)cccc1F` [Example 73, 3-[2-[4-(5-chloro-2-oxo-2,3-dihydro-1H-benzimidazol-1-yl)-1-piperidinyl]-8-(2,6-difluorophenyl)-7-oxo-5,6,7,8-tetrahydropyrimido[4,5-d]pyrimidin-4-yl]-4-methyl-N-(1-methylethyl)benzamide trifluoroacetate], with above 1000 nM.
As to `Cc1c(F)cc(C(=O)NC(C)C)cc1-c1nc(NCCN(C)C)nc2c1CNC(=O)N2c1c(F)cccc1F` [Example 111(c), 3-(8-(2,6-difluorophenyl)-2-{[2-(dimethylamino)ethyl]amino}-7-oxo-5,6,7,8-tetrahydropyrimido[4,5-d]pyrimidin-4-yl)-5-fluoro-4-methyl-N-(1-methylethyl)benzamide], the IC50 in the data set with TNFalpha (upper end printed as greater than 0.1 uM, read-out: IC50, range of data upon multiple runs) was in the range of 40 to 100 nM.
As for `Cc1ccc(C(=O)N(C)C)cc1-c1nc(NCCN(C)C)nc2c1CNC(=O)N2c1c(F)cccc1F` [Example 152], the melting point is 138 to 142 °C. Also, the IC50 in data set [2] is above 100 nM.
`Cc1ccc(C(=O)N(C)C)cc1-c1nc(NCCNC(C)C)nc2c1CNC(=O)N2c1c(F)cccc1F` [Example 153, 3-[8-(2,6-difluorophenyl)-2-({2-[(1-methylethyl)amino]ethyl}amino)-7-oxo-5,6,7,8-tetrahydropyrimido[4,5-d]pyrimidin-4-yl]-N,N,4-trimethylbenzamide] returned a melting point of 130 to 133 °C. Moreover, the IC50 on Recombinant human p38α was above 15800 nM. Moreover, the IC50 in data set [2] was above 100 nM.
In the case of `Cc1ccc(C(=O)N(C)C)cc1-c1nc(N(C)CCCN(C)C)nc2c1CNC(=O)N2c1c(F)cccc1F` [Example 154, 3-{8-(2,6-difluorophenyl)-2-[[3-(dimethylamino)propyl](methyl)amino]-7-oxo-5,6,7,8-tetrahydropyrimido[4,5-d]pyrimidin-4-yl}-N,N,4-trimethylbenzamide], the melting point lay within 114 to 118 °C. Further, the “active in the assay” value on Recombinant human p38α is given as “active”. In addition, in data set [2], the IC50 was above 100 nM.
`Cc1ccc(C(=O)N(C)C)cc1-c1nc(NC2CCN(C)CC2)nc2c1CNC(=O)N2c1c(F)cccc1F` [Example 155, 3-{8-(2,6-difluorophenyl)-2-[(1-methyl-4-piperidinyl)amino]-7-oxo-5,6,7,8-tetrahydropyrimido[4,5-d]-pyrimidin-4-yl}N,N,4-trimethylbenzamide] yielded a melting point of 163 to 165 °C. Further, the “active in the assay” value at Recombinant human p38α is “active”. Moreover, the IC50 in data set [2] is above 100 nM.
As for `CCN(CC)C(=O)c1ccc(C)c(-c2nc(NC3CCN(C)CC3)nc3c2CNC(=O)N3c2c(F)cccc2F)c1` [Example 159, 3-{8-(2,6-difluorophenyl)-2-[(1-methyl-4-piperidinyl)amino]-7-oxo-5,6,7,8-tetrahydropyrimido[4,5-dl-pyrimidin-4-yl}-N,N-diethyl-4-methylbenzamide], the melting point lay in the range of 165 to 169 °C. Also, the IC50 in data set [2] was above 100 nM.
Compound `CCN(CC)C(=O)c1ccc(C)c(-c2nc(NCCNC(C)C)nc3c2CNC(=O)N3c2c(F)cccc2F)c1` [Example 160, 3-[8-(2,6-difluorophenyl)-2-({2-[(1-methylethyl)amino]ethyl}amino)-7-oxo-5,6,7,8-tetrahydropyrimido[4,5-d]pyrimidin-4-yl]-N,N-diethyl-4-methylbenzamide] gave a melting point of 89 to 91 °C. In addition, at Recombinant human p38α, the IC50 was above 15800 nM. For the same compound, the IC50 in data set [2] is above 100 nM.
`CNC(=O)c1ccc(C)c(-c2nc(NCCCN(C)C)nc3c2CNC(=O)N3c2c(F)cccc2F)c1` [Example 166, 3-(8-(2,6-difluorophenyl)-2-{[3-(dimethylamino)propyl]amino}-7-oxo-5,6,7,8-tetrahydropyrimido[4,5-d]pyrimidin-4-yl)-N,4-dimethylbenzamide]: the melting point was 164 to 167 °C (dec.). The inhibition of neutrophilia result in data set [1] is “statistically nonsignificant inhibition of neutrophilia”.
For `CCN(CC)CCCNc1nc(-c2cc(C(=O)NC)ccc2C)c2c(n1)N(c1c(F)cccc1F)C(=O)NC2` [Example 172, 3-[2-{[3-(diethylamino)propyl]amino}-8-(2,6-difluorophenyl)-7-oxo-5,6,7,8-tetrahydropyrimido[4,5-d]pyrimidin-4-yl]-N,4-dimethylbenzamide] the same measures were 133 to 136 °C and “statistically nonsignificant inhibition of neutrophilia”.
For `CNC(=O)c1ccc(C)c(-c2nc(N(C)CCCN(C)C)nc3c2CNC(=O)N3c2c(F)cccc2F)c1` [Example 174, 3-{8-(2,6-difluorophenyl)-2-[[3-(dimethylamino)propyl](methyl)amino]-7-oxo-5,6,7,8-tetrahydropyrimido[4,5-d]pyrimidin-4-yl}-dimethylbenzamide] the same measures were 163 to 165 °C and “inactive”.
For `CNC(=O)c1ccc(C)c(-c2nc(N3CCC(N4CCCC4)CC3)nc3c2CNC(=O)N3c2c(F)cccc2F)c1` [Example 175, 3-{8-(2,6-difluorophenyl)-7-oxo-2-[4-(1-pyrrolidinyl)-1-piperidinyl]-5,6,7,8-tetrahydropyrimido[4,5-d]pyrimidin-4-yl}-N,4-dimethylbenzamide] the same measures were 189 to 194 °C (dec.) and “inactive”.
As for `CNC(=O)c1ccc(C)c(-c2nc(N3CCC(N4CCCCC4)CC3)nc3c2CNC(=O)N3c2c(F)cccc2F)c1` [Example 176, 3-[2-(1,4′-bipiperidin-1′-yl)-8-(2,6-difluorophenyl)-7-oxo-5,6,7,8-tetrahydropyrimido[4,5-d]pyrimidin-4-yl]-N,4-dimethylbenzamide], the melting point is 179 to 184 °C (dec.). Further, the inhibition of neutrophilia result in data set [1] is listed as “statistically nonsignificant inhibition of neutrophilia”.

Usually melting point stands for the temperature of the solid-liquid transition.

Source of the values: patent publication US20090239846A1, “Novel Compounds” (Glaxo Group Limited, priority 2005, published 2009).
